Read-outs that look alike come from different tables or passages of the source.
Experiments:
[1] = system: MLKL phosphorylation in HT29-L23 human colorectal adenocarcinoma cells; test: MLKL Phosphorylation High-Content Assay; format: cell-based; settings: necroptosis induced with TNFα, SMAC mimetic and Z-VAD, 6 h, read-out: pMLKL (IC50)
Method in brief: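 Following fixation and staining for phospho-S358 MLKL with Hoechst nuclear counterstain, high-content imaging quantified phosphorylation in HT29-L23 cells challenged 6 h with TNFα 35 ng/mL, SMAC mimetic 700 nM and Z-VAD 140 nM. Nec-1s at 6.25 μM defined full inhibition; 4-parameter logistic fits yielded IC50 and Ymax.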

[2] = molecular target: His-GST-TVMV-hRIPK1 (1-324) (Homo sapiens (Human), UniProt Q13546); test: biochemical
Chain of His-GST-TVMV-hRIPK1 (1-324) (Q13546 1-324): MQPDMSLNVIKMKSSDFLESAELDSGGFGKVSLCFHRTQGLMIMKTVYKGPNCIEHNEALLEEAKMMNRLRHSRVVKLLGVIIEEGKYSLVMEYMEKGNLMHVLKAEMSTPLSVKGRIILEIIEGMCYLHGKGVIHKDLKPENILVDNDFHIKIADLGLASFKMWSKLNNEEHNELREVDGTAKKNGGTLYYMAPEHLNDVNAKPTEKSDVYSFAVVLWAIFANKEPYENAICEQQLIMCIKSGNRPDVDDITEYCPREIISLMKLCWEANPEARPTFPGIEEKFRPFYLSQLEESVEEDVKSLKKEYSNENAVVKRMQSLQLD

With `CNC(=O)c1n[nH]c2cc(-c3cnc(OC)c(C(=O)NC4CCCC(c5ccccc5)C4)c3)ccc12` (single isomer, unassigned) [Example 21-2, 6-{6-methoxy-5-[(3-phenylcyclohexyl)carbamoyl]pyridin-3-yl}-N-methyl-1H-indazole-3-carboxamide] the IC50 [1] was 13 nM and the IC50 [2] was 5.9 nM.
For `[2H]C([2H])([2H])Oc1ncc(-c2ccc3c(C(=O)NC4CC4)n[nH]c3c2)cc1C(=O)N[C@H](C)c1ccccc1C(F)(F)F` [Example 209, N-cyclopropyl-6-[6-(deutero)-methoxy-5-{[(1R)-1-[2-(trifluoro-methyl)phenyl]ethyl]carbamoyl}-pyridin-3-yl]-1H-indazole-3-carboxamide], the IC50 ([1]; Homo sapiens) was 74 nM and the IC50 [2] was 33 nM.
`CCC(c1ccccc1)n1nnc(-c2cc(-c3ccc4c(C(=O)NC)n[nH]c4c3)cnc2OC)n1` (single isomer, unassigned) [Example 18-1, 6-(6-methoxy-5-(2-(l-phenylpropyl)-2H-tetrazol-5-yl)pyridin-3-yl)-N-methyl-1H-indazole-3-carboxamide] was tested, and the IC50 [1] was 7.3 nM and the IC50 [2] was 5.5 nM.
In the case of `[2H]C([2H])([2H])Oc1ncc(-c2ccc3c(C(=O)NC(C)C)n[nH]c3c2)cc1C(=O)NC(C)c1ccccc1OC(F)(F)F` (racemic) [Example 22, (rac)-N-isopropyl-6-(6-methoxyd3-5-((1-(2-(trifluoromethoxy)phenyl)ethyl)carbamoyl)pyridin-3-yl)-1H-indazole-3-carboxamide], the IC50 ([1]; Homo sapiens) is reported as 440 nM and the IC50 [2] is reported as 100 nM.
With `[2H]C([2H])([2H])Oc1ncc(-c2ccc3c(C(=O)NC([2H])([2H])C([2H])([2H])[2H])n[nH]c3c2)cc1C(=O)NCC[C@@H](O)c1ccc(Cl)cc1` [Example 237, 6-(5-{[(3R)-3-(4-chlorophenyl)-3-hydroxypropyl]carbamoyl}-6-(deutero)methoxypyridin-3-yl)-N-[(1,1,2,2,2-deutero)ethyl]-1H-indazole-3-carboxamide] the IC50 ([1]; Homo sapiens) was 14 nM and the IC50 [2] was 6.3 nM.
For `[2H]C([2H])([2H])Oc1ncc(-c2ccc3c(C(=O)NC([2H])([2H])C([2H])([2H])[2H])n[nH]c3c2)cc1C(=O)N[C@H](C)c1cccc(OC(F)(F)F)c1` [Example 231, N-[(1,1,2,2,2-deutero)ethyl]-6-[6-(deutero)methoxy-5-{[(1R)-1-[3-(trifluoromethoxy)phenyl]ethyl]-carbamoyl}pyridin-3-yl]-1H-indazole-3-carboxamide], the IC50 ([1]; Homo sapiens) was 10 nM and the IC50 [2] was 48 nM.
With `[2H]C([2H])([2H])NC(=O)c1n[nH]c2cc(-c3cnc(OC)c(-c4nnn(C(C)c5ccc(F)cc5)n4)c3)ccc12` (single isomer, unassigned) [Example 19-1, 6-(5-(2-(1-(4-fluorophenyl)ethyl)-2H-tetrazol-5-yl)-6-methoxypyridin-3-yl)-N-(methyl-d3)-1H-indazole-3-carboxamide] the IC50 [1] was 14 nM and the IC50 [2] was 42 nM.
`[2H]C([2H])([2H])NC(=O)c1n[nH]c2cc(-c3cnc(OC)c(-c4nnn(C(C)c5ccc(F)cc5)n4)c3)ccc12` (single isomer, unassigned) [Example 19-2, 6-(5-(2-(1-(4-fluorophenyl)ethyl)-2H-tetrazol-5-yl)-6-methoxypyridin-3-yl)-N-(methyl-d3)-1H-indazole-3-carboxamide] showed an IC50 [1] of 64 nM and an IC50 [2] of 100 nM.
With `[2H]C([2H])([2H])Oc1ncc(-c2ccc3c(C(=O)NC4CC4)n[nH]c3c2)cc1C(=O)N[C@@H](C)CC(=O)OC(C)(C)C` [Example 195, tert-butyl (3S)-3-({5-[3-(cyclo-propylcarbamoyl)-1H-indazol-6-yl]-2-(deutero)methoxypyridin-3-yl}formamido)butanoate] the IC50 [1] was 39 nM and the IC50 [2] was 36 nM.
